These results are taken from patent publication US20220096454A1, “CARBOXYLIC ACID DERIVATIVES” (Merck Patent GmbH, priority 2018, published 2022).

For experiment [1], the system named is Tankyrases. The conditions noted are these: read-out: EC50 [M] TNKS cellular assay; increase of Axin2 level in colon carcinoma cell line DLD1, 24 hours.
Experimental: Measurement of Cellular Inhibition of Tankyrase
Cells of the colon carcinoma cell line DLD1 are plated in 96 well plates with 1.5×10^4 cells per well. Next day, cells are treated with a serial dilution of test compound in seven steps as triplicates with a final DMSO concentration of 0.3%. […] The amount of isolated Axin2 protein is determined in a Luminex^200 machine (Luminex Corporation) according to the manufacturer's instruction by counting 100 events per well. […] As controls cells are treated with solvent alone (neutral control) and with a Tankyrase reference inhibitor IWR-2 (3E−06 M) which refers as control for maximum increase of Axin2. For analysis, the obtained data are normalized against the untreated solvent control and fitted for determination of the EC50 values using the Assay Explorer software (Accelrys).
Experiment [2] concerns the target T1, TNKS1 (Homo sapiens, UniProt O95271).
T1 construct: GST-tagged Tnks-1 (1023-1327 aa, prepared in-house); made in house
As to the kind of experiment: TNKS1 activity ELISA (autoparsylation assay). Particulars: GST-tagged Tnks-1 (1023-1327 aa), 10 μM bio-NAD, 1 hour at 30° C. It is filed as biochemical. On the procedure: (§1) Description of the TNKS1 and TNKS2 ELISA Assay
(§2) Biochemical activity testing of TNKS 1 and 2: activity ELISA (Autoparsylation assay)
(§3) For analysis of autoparsylation activity of TNKS 1 and 2 an activity ELISA is performed: In the first step GST tagged TNKS is captured on a Glutathione coated plate. Then the activity assay with biotinylated NAD is performed in the absence/presence of the compounds. During the enzymatic reaction GST tagged TNKS transfers biotinylated ADP-ribose to itself from biotinylated NAD as co-substrate. For the detection streptavidin-HRP conjugate is added that binds to the biotinylated TNKS and is thereby captured to the plates. The amount of biotinylated resp. autoparsylated TNKS is detected with a luminescence substrate for HRP. The level of the luminescence signal correlates directly with the amount of autoparsylated TNKS and therefore with activity of TNKS.
(§4) The activity ELISA is performed in 384 well Glutathione coated microtiter plates (Express capture Glutathione coated plate, Biocat, Heidelberg, Germany). The plates are pre-equilibrated with PBS. […] The plates are washed 3 times with PBS-Tween-20. The wells are blocked by incubation at room temperature for 20 minutes with 50 μl blocking buffer (PBS, 0.05% Tween-20, 0.5% BSA). Afterwards the plates are washed 3 times with PBS-Tween-20. […] The reaction is stopped by 3 times washing with PBS-Tween-20. For the detection 50 μl of 20 ng/μl Streptavidin, HRP conjugate (MoBiTec, Göttingen, Germany) in PBS/0.05% Tween-20/0.01% BSA are added and the plates are incubated for 30 minutes at room temperature. After three times washing with PBS-Tween-20 50 μl of SuperSignal ELISA Femto Maximum sensitivity substrate solution (ThermoFisherScientific (Pierce), Bonn, Germany) are added. Following a 1 minute incubation at room temperature luminescence signals are measured with an Envision multimode reader (Perkin Elmer LAS Germany GmbH) at 700 nm. The full value used is the inhibitor-free reaction. […] The inhibitory values (IC50) are determined using either the program Symyx Assay Explorer® or Condosseo® from GeneData.

Experiment [3] has as its target T2, TNKS2 (Homo sapiens, UniProt Q9H2K2).
T2 construct: GST-tagged Tnks-2 (873-1166 aa, prepared in-house); made in house
As to the kind of experiment: TNKS2 activity ELISA (autoparsylation assay). It is filed as biochemical. Particulars: GST-tagged Tnks-2 (873-1166 aa), 10 μM bio-NAD, 1 hour at 30° C. On the procedure:
as §1, §2, §3, §4
For orientation: ELISA stands for enzyme-linked immunosorbent assay.

T1 sequence (O95271 1023-1327): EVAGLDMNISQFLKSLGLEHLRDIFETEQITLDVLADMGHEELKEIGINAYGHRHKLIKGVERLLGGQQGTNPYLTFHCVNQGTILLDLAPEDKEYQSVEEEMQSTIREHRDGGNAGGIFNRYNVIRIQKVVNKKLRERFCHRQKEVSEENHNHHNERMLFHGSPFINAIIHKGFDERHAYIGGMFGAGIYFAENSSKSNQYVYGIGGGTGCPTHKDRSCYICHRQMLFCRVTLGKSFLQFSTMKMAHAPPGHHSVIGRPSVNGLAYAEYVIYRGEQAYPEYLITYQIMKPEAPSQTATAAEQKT
T2 sequence (Q9H2K2 873-1166): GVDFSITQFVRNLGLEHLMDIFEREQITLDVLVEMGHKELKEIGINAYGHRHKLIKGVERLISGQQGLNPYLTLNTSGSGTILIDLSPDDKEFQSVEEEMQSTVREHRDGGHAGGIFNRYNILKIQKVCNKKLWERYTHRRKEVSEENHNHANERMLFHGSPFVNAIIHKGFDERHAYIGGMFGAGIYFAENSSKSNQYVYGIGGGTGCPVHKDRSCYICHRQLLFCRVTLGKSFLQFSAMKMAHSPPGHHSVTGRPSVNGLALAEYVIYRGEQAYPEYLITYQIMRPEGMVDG

`CN(C(=O)N1CCC(C(=O)c2ccc3cc(C(=O)O)n(C)c3c2)CC1)c1ccc(F)cc1` [Compound C1, 6-{1-[(4-Fluoro-phenyl)-methyl-carbamoyl]-piperidine-4-carbonyl}-1-methyl-1H-indole-2-carboxylic Acid]: the EC50 (in general, the concentration at which the effect is half-maximal) in experiment [1] was found to be 2.1e-07 M. The IC50 – broadly, the concentration at which inhibition is half-maximal – stood at 3.5 nM in experiment [2] and 1.1 nM in experiment [3].
The corresponding values for `CCN(C(=O)N1CCC(C(=O)c2ccc3cc(C(=O)O)n(C)c3c2)CC1)c1ccc(F)cc1` [Compound C2, 6-{1-[Ethyl-(4-fluoro-phenyl)-carbamoyl]-piperidine-4-carbonyl}-1-methyl-1H-indole-2-carboxylic Acid] are 1.9e-08 M, 0.67 nM and 0.49 nM.
The corresponding values for `COc1ccc(N(C)C(=O)N2CCC(C(=O)c3ccc4cc(C(=O)O)n(C)c4c3)CC2)cc1` [Compound C3, 6-{1-[(4-Methoxy-phenyl)-methyl-carbamoyl]-piperidine-4-carbonyl}-1-methyl-1H-indole-2-carboxylic Acid] are 1.3e-07 M, 1.8 nM and 2.7 nM.
For `CN(C(=O)N1CCC(C(=O)c2ccc3c(c2)cc(C(=O)O)n3C)CC1)c1ccc(F)cc1` [Compound C5, 5-{1-[(4-Fluoro-phenyl)-methyl-carbamoyl]-piperidine-4-carbonyl}-1-methyl-1H-indole-2-carboxylic acid] the same measures were 7.4e-08 M, 1 nM and 1.4 nM.
In the case of `CCN(C(=O)N1CCC(C(=O)c2ccc3c(c2)cc(C(=O)O)n3C)CC1)c1ccc(F)cc1` [Compound C6, 5-{1-[Ethyl-(4-fluoro-phenyl)-carbamoyl]-piperidine-4-carbonyl}-1-methyl-1H-indole-2-carboxylic Acid], in experiment [1], the EC50 worked out at 5.9e-09 M. For the same molecule, the IC50 came out at 0.41 nM in experiment [2] and 1.4 nM in experiment [3].
With `COc1ccc(N(C)C(=O)N2CCC(C(=O)c3ccc4c(c3)cc(C(=O)O)n4C)CC2)cc1` [Compound C7, 5-{1-[(4-Methoxy-phenyl)-methyl-carbamoyl]-piperidine-4-carbonyl}-1-methyl-1H-indole-2-carboxylic Acid], in experiment [1], the EC50 came to 6.31e-08 M. Further, the IC50 in experiment [2] and in experiment [3] was 1.3 nM in each case.
As for `CN(C(=O)N1CCC(C(=O)c2ccc3c(C(=O)O)nn(C)c3c2)CC1)c1ccc(F)cc1` [Compound C9, 6-{1-[(4-Fluoro-phenyl)-methyl-carbamoyl]-piperidine-4-carbonyl}-1-methyl-1H-indazole-3-carboxylic Acid], in experiment [1], the EC50 is 4.9e-06 M. Also, the results for the concentration for half-maximal inhibition (IC50) in experiment [2] and in experiment [3] were 3.29 nM and 1.66 nM, respectively.
Turning to `CCN(C(=O)N1CCC(C(=O)c2ccc3c(C(=O)O)nn(C)c3c2)CC1)c1ccc(F)cc1` [Compound C10, 6-{1-[Ethyl-(4-fluoro-phenyl)-carbamoyl]-piperidine-4-carbonyl}-1-methyl-1H-indazole-3-carboxylic Acid], the EC50 in experiment [1] came out at 4.6e-07 M. Also, the IC50 in experiment [2] is 0.744 nM; in experiment [3], 0.432 nM.
For `COc1ccc(N(C)C(=O)N2CCC(C(=O)c3ccc4c(C(=O)O)nn(C)c4c3)CC2)cc1` [Compound C11, 6-{1-[(4-Methoxy-phenyl)-methyl-carbamoyl]-piperidine-4-carbonyl}-1-methyl-1H-indazole-3-carboxylic Acid] the same measures were 3.9e-06 M, 1.4 nM and 0.74 nM.
With `CN(C(=O)N1CCC(C(=O)c2ccc3c(c2)c(C(=O)O)nn3C)CC1)c1ccc(F)cc1` [Compound C13, 5-{1-[(4-Fluoro-phenyl)-methyl-carbamoyl]-piperidine-4-carbonyl}-1-methyl-1H-indazole-3-carboxylic Acid], the IC50 in experiment [2] turned out to be 115 nM; in experiment [3], 49.9 nM.
Regarding `CCN(C(=O)N1CCC(C(=O)c2ccc3c(c2)c(C(=O)O)nn3C)CC1)c1ccc(F)cc1` [Compound C14, 5-{1-[Ethyl-(4-fluoro-phenyl)-carbamoyl]-piperidine-4-carbonyl}-1-methyl-1H-indazole-3-carboxylic Acid], the EC50 in experiment [1] came to 9.4e-06 M. In addition, the IC50 in experiment [2] amounted to 12.4 nM; in experiment [3] it was 5.91 nM.
For `COc1ccc(N(C)C(=O)N2CCC(C(=O)c3ccc4c(c3)c(C(=O)O)nn4C)CC2)cc1` [Compound C15, 5-{1-[(4-Methoxy-phenyl)-methyl-carbamoyl]-piperidine-4-carbonyl}-1-methyl-1H-indazole-3-carboxylic Acid] the same measures were 7.1e-06 M, 43 nM and 19 nM.
The corresponding values for `CCN(C(=O)N1CCC(C(=O)c2ccc3c(c2)c(C(=O)O)nn3C)CC1)c1ccc(OC)cc1` [Compound C16, 5-{1-[Ethyl-(4-methoxy-phenyl)-carbamoyl]-piperidine-4-carbonyl}-1-methyl-1H-indazole-3-carboxylic Acid] are 9.7e-07 M, 9.7 nM and 4.5 nM.
For `CN(C(=O)N1CCC(C(=O)c2ccc3cnn(C)c3c2)CC1)c1ccc(C(=O)O)cc1` [Compound C17, 4-{Methyl-[4-(1-methyl-1H-indazole-6-carbonyl)-piperidine-1-carbonyl]-amino}-benzoic Acid] the same measures were 2.07e-07 M, 1.32 nM and 0.798 nM.
For the molecule `CN(C(=O)N1CCC(C(=O)c2ccc3cnn(C)c3c2)CC1)c1cccc(C(=O)O)c1` [Compound C19, 3-{Methyl-[4-(1-methyl-1H-indazole-6-carbonyl)-piperidine-1-carbonyl]-amino}-benzoic Acid], the EC50 in experiment [1] was 1.4e-06 M. For the same molecule, the IC50 in experiment [2] came out at 2.2 nM; in experiment [3], 1.4 nM.
In the case of `CCN(C(=O)N1CCC(C(=O)c2ccc3cnn(C)c3c2)CC1)c1cccc(C(=O)O)c1` [Compound C20, 3-{Ethyl-[4-(1-methyl-1H-indazole-6-carbonyl)-piperidine-1-carbonyl]-amino}-benzoic Acid], the EC50 in experiment [1] is 1.93e-07 M. For the same molecule, the values for the IC50 in experiment [2] and in experiment [3] were 0.58 nM and 0.65 nM, respectively.
The corresponding values for `CN(C(=O)N1CCC(C(=O)c2ccc3cnn(C)c3c2)CC1)c1ccc(C(=O)O)nc1` [Compound C21, 5-{Methyl-[4-(1-methyl-1H-indazole-6-carbonyl)-piperidine-1-carbonyl]-amino}-pyridine-2-carboxylic Acid] are 1.5e-05 M, 37 nM and 14 nM.
The corresponding values for `CN(C(=O)N1CCC(C(=O)c2ccc3c(cnn3C)c2)CC1)c1ccc(C(=O)O)cc1` [Compound C22, 4-{Methyl-[4-(1-methyl-1H-indazole-5-carbonyl)-piperidine-1-carbonyl]-amino}-benzoic Acid] are 3.46e-07 M, 7.6 nM and 3.9 nM.
The corresponding values for `CN(C(=O)N1CCC(C(=O)c2ccc3c(cnn3C)c2)CC1)c1cccc(C(=O)O)c1` [Compound C24, 3-{Methyl-[4-(1-methyl-1H-indazole-5-carbonyl)-piperidine-1-carbonyl]-amino}-benzoic Acid] are 6.4e-07 M, 1.3 nM and 0.63 nM.
Consider `CCN(C(=O)N1CCC(C(=O)c2ccc3c(cnn3C)c2)CC1)c1cccc(C(=O)O)c1` [Compound C25, 3-{Ethyl-[4-(1-methyl-1H-indazole-5-carbonyl)-piperidine-1-carbonyl]-amino}-benzoic Acid], for which, in experiment [1], the EC50 is 4.87e-08 M. Moreover, the IC50 in experiment [2] was 1.8 nM; in experiment [3], 0.89 nM.
For `CN(C(=O)N1CCC(C(=O)c2ccc3ncn(C)c3c2)CC1)c1cccc(C(=O)O)c1` [Compound C28, 3-{Methyl-[4-(3-methyl-3H-benzimidazole-5-carbonyl)-piperidine-1-carbonyl]-amino}-benzoic Acid], the IC50 is 53 nM in experiment [2] and 23 nM in experiment [3].
Regarding `CN(C(=O)N1CCC(C(=O)c2ccc3c(c2)ncn3C)CC1)c1cccc(C(=O)O)c1` [Compound C32, 3-{Methyl-[4-(1-methyl-1H-benzimidazole-5-carbonyl)-piperidine-1-carbonyl]-amino}-benzoic Acid], the IC50 worked out at 19 nM in experiment [2] and 7.8 nM in experiment [3].
